This note sets out measurements from patent US12084472B2 (Ardelyx, Inc., priority 2015, dated 2024).

The assay concerns the target T1, human TGR5 (Homo sapiens, UniProt Q8TDU6).
T1 construct: expressed in transfected cells; host or cells: HEK293
T1 sequence (Q8TDU6 1-330): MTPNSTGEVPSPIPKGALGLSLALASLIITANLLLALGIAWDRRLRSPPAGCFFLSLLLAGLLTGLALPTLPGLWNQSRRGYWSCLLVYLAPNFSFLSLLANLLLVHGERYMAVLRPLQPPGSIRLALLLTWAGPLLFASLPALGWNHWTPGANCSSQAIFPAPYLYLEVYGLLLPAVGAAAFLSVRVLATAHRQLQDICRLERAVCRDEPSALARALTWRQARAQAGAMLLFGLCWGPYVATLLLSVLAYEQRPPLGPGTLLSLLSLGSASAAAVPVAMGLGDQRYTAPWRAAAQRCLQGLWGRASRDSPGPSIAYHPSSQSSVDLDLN
Briefly: Cell-based TGR5 assay (cAMP generation, HTRF). Conditions: HEK293 cells stably transfected with human TGR5; cAMP by HTRF; 30 minutes at 37° C.; read-out: pEC50 Human TGR5 (converted). The procedure, abridged:
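First, compounds in 3-fold serial dilution were placed in HBSS with 10 mM HEPES pH 7.4 and 0.5 mM IBMX. Next, human TGR5-expressing HEK293 cells were added and incubated 30 min at 37° C. Finally, cAMP was detected by HTRF and pEC50 derived by logistic fitting.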
(In TR-FRET formats the signal depends on donor and acceptor labels being close together.)
Take `Cc1ccc(CCCCC(=O)N(C)C[C@H](O)[C@@H](O)[C@H](O)[C@H](O)CO)cc1COC1(c2cnccc2-c2ccccc2OC2CC2)CC1` (stereo in doubt) [Compound I-236, 5-[3-({1-[4-(2-cyclopropoxyphenyl)pyridin-3-yl]cyclopropoxy}methyl)-4-methylphenyl]-N-methyl-N-[(2S,3R,4R,5R)-2,3,4,5,6-pentahydroxyhexyl]pentanamide]: the EC50 is under 100 nM.
For `Cc1ccc(CCCCC(=O)NC[C@H](O)[C@@H](O)[C@H](O)[C@H](O)CO)cc1CNC1(c2cnccc2-c2ccccc2OC2CC2)CC1` (stereo in doubt) [Compound I-237, 5-{3-[({1-[4-(2-cyclopropoxyphenyl)pyridin-3-yl]cyclopropyl}amino)methyl]-4-methylphenyl}-N-[(2S,3R,4R,5R)-2,3,4,5,6-pentahydroxyhexyl]pentanamide], the EC50 is 126 to 1000 nM.
With `Cc1ccc(CCCCC(=O)N(C)C[C@H](O)[C@@H](O)[C@H](O)[C@H](O)CO)cc1CNC1(c2cnccc2-c2ccccc2OC2CC2)CC1` (stereo in doubt) [Compound I-238, 5-{3-[({1-[4-(2-cyclopropoxyphenyl)pyridin-3-yl]cyclopropyl}amino)methyl]-4-methylphenyl}-N-methyl-N-[(2S,3R,4R,5R)-2,3,4,5,6-pentahydroxyhexyl]pentanamide], the EC50 was 126 to 1000 nM.
On to `O=C(NCCCCc1ccc(Cl)c(CNC2(c3cnccc3-c3ccccc3OC3CC3)CC2)c1)NC[C@H](O)[C@@H](O)[C@H](O)[C@H](O)CO` (stereo in doubt) [Compound I-241, 1-(4-{4-chloro-3-[({1-[4-(2-cyclopropoxyphenyl)pyridin-3-yl]cyclopropyl}amino)methyl]phenyl}butyl)-3-[(2S,3R,4R,5R)-2,3,4,5,6-pentahydroxyhexyl]urea], for which the EC50 was 126 to 1000 nM.
In the case of `O=C(NCCCCNS(=O)(=O)c1ccc(Cl)c(COC2(c3cnccc3-c3ccccc3OC3CC3)CC2)c1)NC[C@H](O)[C@@H](O)[C@H](O)[C@H](O)CO` (stereo in doubt) [Compound I-401, 1-{4-[4-chloro-3-({1-[4-(2-cyclopropoxyphenyl)pyridin-3-yl]cyclopropoxy}methyl)benzenesulfonamido]butyl}-3-[(2S,3R,4R,5R)-2,3,4,5,6-pentahydroxyhexyl]urea], the EC50 was under 100 nM.
`CN(CCCCNC(=O)NC[C@H](O)[C@@H](O)[C@H](O)[C@H](O)CO)S(=O)(=O)c1ccc(Cl)c(COC2(c3cnccc3-c3ccccc3OC3CC3)CC2)c1` (stereo in doubt) [Compound I-402, 1-{4-[N-methyl4-chloro-3-({1-[4-(2-cyclopropoxyphenyl)pyridin-3-yl]cyclopropoxy}methyl)benzenesulfonamido]butyl}-3-[(2S,3R,4R,5R)-2,3,4,5,6-pentahydroxyhexyl]urea]: the EC50 is under 100 nM.
Then `O=C(NCCOCCNS(=O)(=O)c1ccc(Cl)c(COC2(c3cnccc3-c3ccccc3OC3CC3)CC2)c1)NC[C@H](O)[C@@H](O)[C@H](O)[C@H](O)CO` (stereo in doubt) [Compound I-403, 1-(2-{2-[4-chloro-3-({1-[4-(2-cyclopropoxyphenyl)pyridin-3-yl]cyclopropoxy}methyl)benzenesulfonamido]ethoxy}ethyl)-3-[(2S,3R,4R,5R)-2,3,4,5,6-pentahydroxyhexyl]urea], with under 100 nM.
On to `CN(CCOCCNC(=O)NC[C@H](O)[C@@H](O)[C@H](O)[C@H](O)CO)S(=O)(=O)c1ccc(Cl)c(COC2(c3cnccc3-c3ccccc3OC3CC3)CC2)c1` (stereo in doubt) [Compound I-404, 1-(2-{2-[N-methyl4-chloro-3-({1-[4-(2-cyclopropoxyphenyl)pyridin-3-yl]cyclopropoxy}methyl)benzenesulfonamido]ethoxy}ethyl)-3-[(2S,3R,4R,5R)-2,3,4,5,6-pentahydroxyhexyl]urea], for which the EC50 was under 100 nM.
As for `CN(CCCCCNC(=O)N[C@@H](CO)[C@@H](O)[C@H](O)[C@H](O)CO)S(=O)(=O)c1ccc(Cl)c(COC2(c3cnccc3-c3ccccc3OC3CC3)CC2)c1` (stereo in doubt) [Compound I-405, 1-{5-[N-methyl4-chloro-3-({1-[4-(2-cyclopropoxyphenyl)pyridin-3-yl]cyclopropoxy}methyl)benzenesulfonamido]pentyl}-3-[(2S,3R,4S,5R)-1,3,4,5,6-pentahydroxyhexan-2-yl]urea], the EC50 is under 100 nM.
In the case of `CN(CCOCCNC(=O)N[C@@H](CO)[C@@H](O)[C@H](O)[C@H](O)CO)S(=O)(=O)c1ccc(Cl)c(COC2(c3cnccc3-c3ccccc3OC3CC3)CC2)c1` (stereo in doubt) [Compound I-406, 1-(2-{2-[N-methyl4-chloro-3-({1-[4-(2-cyclopropoxyphenyl)pyridin-3-yl]cyclopropoxy}methyl)benzenesulfonamido]ethoxy}ethyl)-3-[(2S,3R,4S,5R)-1,3,4,5,6-pentahydroxyhexan-2-yl]urea], the EC50 was under 100 nM.
As to `COCCN(CCCCNC(=O)NC[C@H](O)[C@@H](O)[C@H](O)[C@H](O)CO)S(=O)(=O)c1ccc(Cl)c(COC2(c3cnccc3-c3ccccc3OC3CC3)CC2)c1` (stereo in doubt) [Compound I-407, 1-{4-[N-(2-methoxyethyl)4-chloro-3-({1-[4-(2-cyclopropoxyphenyl)pyridin-3-yl]cyclopropoxy}methyl)benzenesulfonamido]butyl}-3-[(2S,3R,4R,5R)-2,3,4,5,6-pentahydroxyhexyl]urea], the EC50 is under 100 nM.
Turning to `O=C(NCCOCCNS(=O)(=O)c1ccc(Cl)c(COC2(c3cnccc3-c3ccccc3OC3CC3)CC2)c1)N[C@@H](CO)[C@@H](O)[C@H](O)[C@H](O)CO` (stereo in doubt) [Compound I-408, 1-(2-{2-[4-chloro-3-({1-[4-(2-cyclopropoxyphenyl)pyridin-3-yl]cyclopropoxy}methyl)benzenesulfonamido]ethoxy}ethyl)-3-[(2S,3R,4S,5R)-1,3,4,5,6-pentahydroxyhexan-2-yl]urea], the EC50 is under 100 nM.
Then `O=C(NCCCCCNS(=O)(=O)c1ccc(Cl)c(COC2(c3cnccc3-c3ccccc3OC3CC3)CC2)c1)N[C@@H](CO)[C@@H](O)[C@H](O)[C@H](O)CO` (stereo in doubt) [Compound I-409, 1-{5-[4-chloro-3-({1-[4-(2-cyclopropoxyphenyl)pyridin-3-yl]cyclopropoxy}methyl)benzenesulfonamido]pentyl}-3-[(2S,3R,4S,5R)-1,3,4,5,6-pentahydroxyhexan-2-yl]urea], with under 100 nM; and `O=C(NCCCCNS(=O)(=O)c1ccc(Cl)c(COC2(c3cnccc3-c3ccccc3OC3CC3)CC2)c1)N[C@@H](CO)[C@@H](O)[C@H](O)[C@H](O)CO` (stereo in doubt) [Compound I-410, 1-{4-[4-chloro-3-({1-[4-(2-cyclopropoxyphenyl)pyridin-3-yl]cyclopropoxy}methyl)benzenesulfonamido]butyl}-3-[(2S,3R,4S,5R)-1,3,4,5,6-pentahydroxyhexan-2-yl]urea], with under 100 nM; and `O=C(NCC1CCCN(S(=O)(=O)c2ccc(Cl)c(COC3(c4cnccc4-c4ccccc4OC4CC4)CC3)c2)C1)NC[C@H](O)[C@@H](O)[C@H](O)[C@H](O)CO` (stereo in doubt) [Compound I-426, 1-({1-[4-chloro-3-({1-[4-(2-cyclopropoxyphenyl)pyridin-3-yl]cyclopropoxy}methyl)benzenesulfonyl]piperidin-3-yl}methyl)-3-[(2S,3R,4R,5R)-2,3,4,5,6-pentahydroxyhexyl]urea], with under 100 nM.
For `Clc1ccc(Cl)c(CNC2(c3cnccc3-c3ccccc3OC3CC3)CC2)c1` [Compound I-1, 1-[4-(2-cyclopropoxyphenyl)pyridin-3-yl]-N-[(2,5-dichlorophenyl)methyl]cyclopropan-1-amine], the EC50 is under 100 nM.
Consider `CC(C)Oc1ccccc1-c1ccncc1C1(NCc2cc(Cl)ccc2Cl)CC1` [Compound I-2, N-[(2,5-dichlorophenyl)methyl]-1-{4-[2-(propan-2-yloxy)phenyl]pyridin-3-yl}cyclopropan-1-amine], for which the EC50 was under 100 nM.
For the molecule `Fc1ccc(OC2CC2)c(-c2ccncc2C2(NCc3cc(Cl)ccc3Cl)CC2)c1` [Compound I-3, 1-[4-(2-cyclopropoxy-5-fluorophenyl)pyridin-3-yl]-N-[(2,5-dichlorophenyl)methyl]cyclopropan-1-amine], the EC50 is under 100 nM.
Under `COc1ccccc1-c1ccncc1C1(NCc2cc(Cl)ccc2Cl)CC1` [Compound I-4, N-[(2,5-dichlorophenyl)methyl]-1-[4-(2-methoxyphenyl)pyridin-3-yl]cyclopropan-1-amine] stands 126 to 1000 nM.
Consider `Clc1ccc(Cl)c(CNC2(c3cnccc3-c3ccccc3OC3CCC3)CC2)c1` [Compound I-5, 1-[4-(2-cyclobutoxyphenyl)pyridin-3-yl]-N-[(2,5-dichlorophenyl)methyl]cyclopropan-1-amine], for which the EC50 is 126 to 1000 nM.
As to `Cc1ccccc1-c1ccncc1C1(NCc2cc(Cl)ccc2Cl)CC1` [Compound I-6, N-[(2,5-dichlorophenyl)methyl]-1-[4-(2-methylphenyl)pyridin-3-yl]cyclopropan-1-amine], the EC50 was 126 to 1000 nM.
In the case of `CSc1ccccc1-c1ccncc1C1(NCc2cc(Cl)ccc2Cl)CC1` [Compound I-7, N-[(2,5-dichlorophenyl)methyl]-1-{4-[2-(methylsulfanyl)phenyl]pyridin-3-yl}cyclopropan-1-amine], the EC50 was 126 to 1000 nM.
